24 compounds from patent publication US11254663B2 (BRISTOL-MYERS SQUIBB COMPANY, priority 2019, dated 2022) can be followed below.

In the test the target is FXR (Homo sapiens (Human), UniProt Q96RI1). The test is described as follows: FXR EC50 (FXR agonist potency reported with each Example). It is filed as cell-based.

Molecules are shown by their SMILES.

As usually defined, the EC50 is the concentration at which the effect is half-maximal. A lower EC50 goes with greater potency.

Sequence of FXR (Q96RI1 262-486): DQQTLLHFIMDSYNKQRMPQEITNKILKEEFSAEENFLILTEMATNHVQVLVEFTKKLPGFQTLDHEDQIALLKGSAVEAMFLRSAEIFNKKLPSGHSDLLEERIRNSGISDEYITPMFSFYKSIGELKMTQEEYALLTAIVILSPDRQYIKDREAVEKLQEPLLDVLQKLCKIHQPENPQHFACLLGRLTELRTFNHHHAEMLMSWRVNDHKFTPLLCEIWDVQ

On to `CC(C)(C)c1noc(C23CCC(CN(C(=O)C45CC(F)(C4)C5)c4cccc(-c5noc(C6(C)CC6)n5)c4)(CC2)CC3)n1` [Example 176, N-((4-(3-(tert-butyl)-1,2,4-oxadiazol-5-yl)bicyclo[2.2.2]octan-1-yl)methyl)-3-fluoro-N-(3-(5-(1-methylcyclopropyl)-1,2,4-oxadiazol-3-yl)phenyl)bicyclo[1.1.1]pentane-1-carboxamide], for which the midpoint of the response, the EC50, lay at 24 nM. For the compound `COc1cc(-c2cccc(N(CC34CCC(c5nc(C)no5)(CC3)CC4)C(=O)C34CC(F)(C3)C4)c2)ccn1` [Example 228, 3-fluoro-N-(3-(2-methoxypyridin-4-yl)phenyl)-N-((4-(3-methyl-1,2,4-oxadiazol-5-yl)bicyclo[2.2.2]octan-1-yl)methyl)bicyclo[1.1.1]pentane-1-carboxamide], the EC50 is 442 nM. `O=C(C1CC(F)(F)C1)N(CC12CCC(c3cc(C(F)(F)F)ccn3)(CC1)CC2)c1cccc(-c2nc(C3CC3)no2)c1` [Example 49, N-(3-(3-cyclopropyl-1,2,4-oxadiazol-5-yl)phenyl)-3,3-difluoro-N-((4-(4-(trifluoromethyl)pyridin-2-yl)bicyclo[2.2.2]octan-1-yl)methyl)cyclobutane-1-carboxamide] displayed an EC50 of 1370 nM. As to `N#CC1(c2ccc(C34CCC(CN(C(=O)C5CC(C(F)F)C5)c5cccc(-c6nc(C7CC7)no6)c5)(CC3)CO4)cc2)CC1` (stereo not drawn) [Example 141, N-((1-(4-(1-Cyanocyclopropyl)phenyl)-2-oxabicyclo[2.2.2]octan-4-yl)methyl)-N-(3-(3-cyclopropyl-1,2,4-oxadiazol-5-yl)phenyl)-3-(difluoromethyl)cyclobutane-1-carboxamide], the response was half-maximal at 643 nM (EC50). In the case of `CC(C)(C)c1noc(C23CCC(CN(C(=O)C45CC(F)(C4)C5)c4cccc(-c5nc(C6CC6)no5)c4)(CC2)CC3)n1` [Example 88, N-((4-(3-(tert-butyl)-1,2,4-oxadiazol-5-yl)bicyclo[2.2.2]octan-1-yl)methyl)-N-(3-(3-cyclopropyl-1,2,4-oxadiazol-5-yl)phenyl)-3-fluorobicyclo[1.1.1]pentane-1-carboxamide] it was 86 nM; in that of `O=C(C1CC(F)(F)C1)N(CC12CCC(c3nc(CC4CC4)no3)(CC1)CC2)c1cccc(-c2nc(CC3CC3)no2)c1` [Example 63, N-((4-(3-(cyclopropylmethyl)-1,2,4-oxadiazol-5-yl)bicyclo[2.2.2]octan-1-yl)methyl)-N-(3-(3-(cyclopropylmethyl)-1,2,4-oxadiazol-5-yl)phenyl)-3,3-difluorocyclobutane-1-carboxamide], 562 nM.

With `O=C(N(CC12CCC(c3nc(C4CC4)no3)(CC1)CC2)c1cccc(-c2cnn(CC(F)F)c2)c1)C12CC(F)(C1)C2` [Example 161, N-((4-(3-cyclopropyl-1,2,4-oxadiazol-5-yl)bicyclo[2.2.2]octan-1-yl)methyl)-N-(3-(1-(2,2-difluoroethyl)-1H-pyrazol-4-yl)phenyl)-3-fluorobicyclo[1.1.1]pentane-1-carboxamide], the EC50 was determined as 96 nM. The figure for `CC(F)(F)c1nc(C23CCC(CN(C(=O)C45CC(F)(C4)C5)c4cccc(-c5noc(C6(C)CC6)n5)c4)(CC2)CC3)no1` [Example 179, N-((4-(5-(1,1-difluoroethyl)-1,2,4-oxadiazol-3-yl)bicyclo[2.2.2]octan-1-yl)methyl)-3-fluoro-N-(3-(5-(1-methylcyclopropyl)-1,2,4-oxadiazol-3-yl)phenyl)bicyclo[1.1.1]pentane-1-carboxamide] is 58 nM; for `CC(C)(C)c1nc(C23CCC(CN(C(=O)C45CC(F)(C4)C5)c4cc(-c5cnn(C(F)F)c5)ccn4)(CC2)CC3)no1` [Example 212, N-((4-(5-(tert-butyl)-1,2,4-oxadiazol-3-yl)bicyclo[2.2.2]octan-1-yl)methyl)-N-(4-(1-(difluoromethyl)-1H-pyrazol-4-yl)pyridin-2-yl)-3-fluorobicyclo[1.1.1]pentane-1-carboxamide] it is 11 nM. `O=C(N(CC12CCC(c3nc(C4CC4)no3)(CC1)OC2)c1cccc(-c2cc(C3CC3)on2)c1)C12CC(F)(C1)C2` [Example 199, N-((1-(3-cyclopropyl-1,2,4-oxadiazol-5-yl)-2-oxabicyclo[2.2.2]octan-4-yl)methyl)-N-(3-(5-cyclopropylisoxazol-3-yl)phenyl)-3-fluorobicyclo[1.1.1]pentane-1-carboxamide]: the response was half-maximal at 281 nM (EC50).

`Cn1cc(-c2cccc(N(CC34CCC(c5nc(C6CC6)no5)(CC3)CC4)C(=O)C3CC(F)(F)C3)c2)nc1C1CC1` [Example 131, N-((4-(3-cyclopropyl-1,2,4-oxadiazol-5-yl)bicyclo[2.2.2]octan-1-yl)methyl)-N-(3-(2-cyclopropyl-1-methyl-1H-imidazol-4-yl)phenyl)-3,3-difluorocyclobutane-1-carboxamide] returned an EC50 of 1440 nM.

Compound `CCn1cc(-c2cccc(N(CC34CCC(c5nc(C6CC6)no5)(CC3)CC4)C(=O)C3CC(F)(F)C3)c2)oc1=O` [Example 81, N-((4-(3-cyclopropyl-1,2,4-oxadiazol-5-yl)bicyclo[2.2.2]octan-1-yl)methyl)-N-(3-(3-ethyl-2-oxo-2,3-dihydrooxazol-5-yl)phenyl)-3,3-difluorocyclobutane-1-carboxamide] returned an EC50 of 945 nM. `O=C(C1CC(F)(F)C1)N(CC12CCC(c3nc(C4CC4)no3)(CC1)CC2)c1cccc(-c2nc(C(F)F)co2)c1` [Example 41, N-((4-(3-cyclopropyl-1,2,4-oxadiazol-5-yl)bicyclo[2.2.2]octan-1-yl)methyl)-N-(3-(4-(difluoromethyl)oxazol-2-yl)phenyl)-3,3-difluorocyclobutane-1-carboxamide] had an EC50 of 465 nM. As for `O=C(N(CC12CCC(c3nc(C4CC4)cs3)(CC1)CC2)c1cccc(-c2cnc(C3CC3)o2)c1)C12CC(F)(C1)C2` [Example 97, N-(3-(2-cyclopropyloxazol-5-yl)phenyl)-N-((4-(4-cyclopropylthiazol-2-yl)bicyclo[2.2.2]octan-1-yl)methyl)-3-fluorobicyclo[1.1.1]pentane-1-carboxamide], the EC50 was determined as 70 nM. In the case of `CC(N(C(=O)C12CC(F)(C1)C2)c1cccc(-c2nc(C3CC3)no2)c1)C12CCC(c3nc(C4CC4)no3)(CC1)CC2` (single isomer, unassigned) [Example 217, N-(1-(4-(3-cyclopropyl-1,2,4-oxadiazol-5-yl)bicyclo[2.2.2]octan-1-yl)ethyl)-N-(3-(3-cyclopropyl-1,2,4-oxadiazol-5-yl)phenyl)-3-fluorobicyclo[1.1.1]pentane-1-carboxamide], the EC50 stood at 1440 nM.

`Cn1nc(C23CCC(CN(C(=O)C45CC(F)(C4)C5)c4cccc(-c5noc(C(F)F)n5)c4)(CC2)CC3)cc1C1CC1` [Example 168, N-((4-(5-cyclopropyl-1-methyl-1H-pyrazol-3-yl)bicyclo[2.2.2]octan-1-yl)methyl)-N-(3-(5-(difluoromethyl)-1,2,4-oxadiazol-3-yl)phenyl)-3-fluorobicyclo[1.1.1]pentane-1-carboxamide] returned an EC50 of 111 nM.

Consider `CC1(c2nc(-c3cccc(N(CC45CCC(c6ccc(C(F)(F)F)cn6)(CC4)CC5)C(=O)C45CC(F)(C4)C5)c3)no2)CC1` [Example 186, 3-fluoro-N-(3-(5-(1-methylcyclopropyl)-1,2,4-oxadiazol-3-yl)phenyl)-N-((4-(5-(trifluoromethyl)pyridin-2-yl)bicyclo[2.2.2]octan-1-yl)methyl)bicyclo[1.1.1]pentane-1-carboxamide], for which the response was half-maximal at 625 nM (EC50). The figure for `Cc1noc(-c2cccc(N(CC34CCC(c5ccc(C6CC6)cc5)(CC3)CC4)C(=O)C(C)C)c2)n1` [Example 1, N-((4-(4-cyclopropylphenyl)bicyclo[2.2.2]octan-1-yl)methyl)-N-(3-(3-methyl-1,2,4-oxadiazol-5-yl)phenyl)isobutyramide] is 1830 nM; for `CC(C)(O)c1nc(-c2cccc(N(CC34CCC(c5nc(C6CC6)no5)(CC3)CC4)C(=O)C34CC(F)(C3)C4)c2)cs1` [Example 31, N-((4-(3-cyclopropyl-1,2,4-oxadiazol-5-yl)bicyclo[2.2.2]octan-1-yl)methyl)-3-fluoro-N-(3-(2-(2-hydroxypropan-2-yl)thiazol-4-yl)phenyl)bicyclo[1.1.1]pentane-1-carboxamide] it is 260 nM; for `O=C(C1CC(C(F)F)C1)N(CC12CCC(c3nc(C4CC4)no3)(CC1)CC2)c1cccc(-c2cc(C3CC3)on2)c1` (stereo not drawn) [Example 58, N-((4-(3-cyclopropyl-1,2,4-oxadiazol-5-yl)bicyclo[2.2.2]octan-1-yl)methyl)-N-(3-(5-cyclopropylisoxazol-3-yl)phenyl)-3-(difluoromethyl)cyclobutane-1-carboxamide] it is 39 nM. Compound `O=C(C1CC(F)(F)C1)N(CC12CCC(c3nc(C4CC4)no3)(CC1)OC2)c1cccc(-c2cc(C3CC3)on2)c1` [Example 200, N-((1-(3-cyclopropyl-1,2,4-oxadiazol-5-yl)-2-oxabicyclo[2.2.2]octan-4-yl)methyl)-N-(3-(5-cyclopropylisoxazol-3-yl)phenyl)-3,3-difluorocyclobutane-1-carboxamide] yielded an EC50 of 526 nM. Compound `O=C(N(CC12CCC(c3nc(C4CC4)no3)(CC1)CC2)c1cccc(-c2cnn(C3COC3)c2)c1)C12CC(F)(C1)C2` [Example 150, N-((4-(3-cyclopropyl-1,2,4-oxadiazol-5-yl)bicyclo[2.2.2]octan-1-yl)methyl)-3-fluoro-N-(3-(1-(oxetan-3-yl)-1H-pyrazol-4-yl)phenyl)bicyclo[1.1.1]pentane-1-carboxamide] displayed an EC50 of 87 nM.

`CCn1cc(-c2cccc(N(CC34CCC(c5nc(C6CC6)no5)(CC3)CC4)C(=O)C34CC(F)(C3)C4)c2)oc1=O` [Example 80, N-((4-(3-cyclopropyl-1,2,4-oxadiazol-5-yl)bicyclo[2.2.2]octan-1-yl)methyl)-N-(3-(3-ethyl-2-oxo-2,3-dihydrooxazol-5-yl)phenyl)-3-fluorobicyclo[1.1.1]pentane-1-carboxamide] returned an EC50 of 265 nM. Consider `CC1(c2nc(C34CCC(CN(C(=O)C56CC(F)(C5)C6)c5cccc(-c6nnc(C7CC7)o6)c5)(CC3)CC4)no2)COC1` [Example 155, N-(3-(5-cyclopropyl-1,3,4-oxadiazol-2-yl)phenyl)-3-fluoro-N-((4-(5-(3-methyloxetan-3-yl)-1,2,4-oxadiazol-3-yl)bicyclo[2.2.2]octan-1-yl)methyl)bicyclo[1.1.1]pentane-1-carboxamide], for which a half-maximal response (EC50) required 72 nM.
